Results as given in US9255268B2, “Methods for diagnosing and treating learning or mental disorders” (St. Jude Children's Research Hospital, priority 2012, dated 2016).

Experiments:
[1] = test system: LTP at CA3-CA1 synapses in hippocampal slices; test: LTP of fEPSPs in acute hippocampal slices in the presence of the SERCA inhibitor thapsigargin; assay type: cell-based, mouse
Protocol: Acute transverse hippocampal slices (400 μm) were prepared according to known methods (Earls, et al. (2010) J. Neurosci. 30:15843-15855). Briefly, mouse brains were quickly removed and placed in cold (4° C.) dissecting artificial CSF (ACSF) containing 125 mM choline-Cl, 2.5 mM KCl, 0.4 mM CaCl2, 6 mM MgCl2, 1.25 mM NaH2PO4, 26 mM NaHCO3, and 20 mM glucose (285-295 mOsm), under 95% O2/5% CO2. After dissection, slices were incubated for 1 hour in ACSF containing 125 mM NaCl, 2.5 mM KCl, 2 mM CaCl2, 2 mM MgCl2, 1.25 mM NaH2PO4, 26 mM NaHCO3, and 10 mM glucose (285-295 mOsm), under 95% O2/5% CO2 at room temperature, and then transferred into submerged recording chambers and superfused (2-3 ml/min) with warm (30-32° C.) ACSF. Field recordings were performed using a setup with eight submerged recording chambers (Campden Instruments). Recordings in each chamber were performed independently. Field EPSPs (fEPSPs) from the CA1 stratum radiatum were recorded by using an extracellular glass pipette (3-5 MΩ) filled with ACSF. Schaffer collateral fibers in the stratum radiatum were stimulated with a bipolar tungsten electrode placed 200-300 μm away from the recording pipette. Stimulation intensities were chosen to produce an fEPSP with a 0.5 V/s slope. LTP was induced by three periods of 200 Hz tetanization delivered every 5 minutes. Each period of tetanization included 10 trains of 200 Hz stimulation delivered at the same intensity for 200 ms (40 stimulations) every 5 seconds. To test whether this increase in SERCA2 was necessary for enhanced LTP in Dgcr8^+/− mice, LTP was measured in the presence of the SERCA inhibitor thapsigargin (4 μM). […] In the absence of thapsigargin, the fEPSP slope increased measured six hours after induction was approximately 120% stronger than in the presence of thapsigargin in slices from Dgcr8^+/− mice (8 mice: 21 slices vehicle, 21 slices thapsigargin; p=0.014).

[2] = test system: LTP in Dgcr8+/− hippocampus; test: Rescue of LTP increase in Dgcr8+/− mice by presynaptic restoration of miRNA (AAV into CA3); assay type: in vivo, mouse; conditions: presynaptic (CA3) AAV expression; injected at 10 weeks, LTP measured at 16 weeks
Protocol: Acute transverse hippocampal slices (400 μm) were prepared according to known methods (Earls, et al. (2010) J. Neurosci. 30:15843-15855). Briefly, mouse brains were quickly removed and placed in cold (4° C.) dissecting artificial CSF (ACSF) containing 125 mM choline-Cl, 2.5 mM KCl, 0.4 mM CaCl2, 6 mM MgCl2, 1.25 mM NaH2PO4, 26 mM NaHCO3, and 20 mM glucose (285-295 mOsm), under 95% O2/5% CO2. After dissection, slices were incubated for 1 hour in ACSF containing 125 mM NaCl, 2.5 mM KCl, 2 mM CaCl2, 2 mM MgCl2, 1.25 mM NaH2PO4, 26 mM NaHCO3, and 10 mM glucose (285-295 mOsm), under 95% O2/5% CO2 at room temperature, and then transferred into submerged recording chambers and superfused (2-3 ml/min) with warm (30-32° C.) ACSF. Field recordings were performed using a setup with eight submerged recording chambers (Campden Instruments). Recordings in each chamber were performed independently. Field EPSPs (fEPSPs) from the CA1 stratum radiatum were recorded by using an extracellular glass pipette (3-5 MΩ) filled with ACSF. Schaffer collateral fibers in the stratum radiatum were stimulated with a bipolar tungsten electrode placed 200-300 μm away from the recording pipette. Stimulation intensities were chosen to produce an fEPSP with a 0.5 V/s slope. LTP was induced by three periods of 200 Hz tetanization delivered every 5 minutes. Each period of tetanization included 10 trains of 200 Hz stimulation delivered at the same intensity for 200 ms (40 stimulations) every 5 seconds.
In Vivo Viral Injections. Adeno-associated viruses (AAVs) were prepared by cloning chimeric hairpins of them iRNAs of interest with hsa-miR-30a into the pAAV-6P-SEWB vector (Christensen, et al. (2010) Front. Neural Circuits 3:16). […]

SERCA2 = test: Quantitative western blot of SERCA2 in hippocampus after AAV-miRNA injection into CA3; assay type: in vivo, mouse; conditions: wild-type mice; injection into CA3 at 10 weeks, hippocampi harvested at 16 weeks; versus GFP-only vector
Protocol: Western blots were performed according to known methods (Earls, et al. (2010) supra). For human brain tissue, dissected samples arrived from brain banks frozen on dry ice. Mouse tissue was dissected at 4° C. and prepared either as whole-tissue lysates or as crude P2 synaptosomal fractions. Synaptosomes were prepared using established methods (Gray & Whittaker (1962) J. Anat. 96:79-88). In brief, tissue was homogenized in 10 mM HEPES (pH 7.4)/0.32 M sucrose using a motorized glass-TEFLON homogenizer. To separate the P2 synaptosomal fraction, the homogenate was spun for 5 minutes at 800×g; the supernatant from three successive spins was then centrifuged for 20 minutes at 12,000×g. Tissue or synaptosomal pellets were lysed by freezing and thawing, subsequent syringe passage in ice-cold radioimmunoprecipitation assay buffer (50 mM Tris-HCl (pH 7.4), 1% NP-40, 0.25% sodium deoxycholate, 150 mM NaCl, 1 mM EDTA, and protease inhibitor cocktail tablets (Roche), and finally brief sonication. Concentrations of protein lysates were determined by the BCA assay (Thermo Scientific). A 25 μg sample of each protein extract was electrophoresed on a 10% SDS-PAGE gel, and protein was transferred onto polyvinylidene difluoride membranes (Invitrogen). The primary antibodies used were goat anti-SERCA2 (1:250, sc-8095; Santa Cruz Biotechnology) and mouse anti-β-actin (1:10000, A5316; Sigma-Aldrich). […]

Compound: C/C=C(/C)C(=O)O[C@H]1C(C)=C2[C@H]([C@@H]1OC(=O)CCCCCCC)[C@@](C)(OC(C)=O)C[C@H](OC(=O)CCC)[C@@]1(O)[C@H]2OC(=O)[C@@]1(C)O [thapsigargin]
- fEPSP slope increase in the absence versus the presence of thapsigargin ([1]; six hours after induction, 4 μM, slices from Dgcr8+/− mice, p=0.014): approximately 120%
- LTP increase in Dgcr8+/− slices ([1]; thapsigargin 4 μM, slices from mature Dgcr8+/− mice): rescued the LTP increase
- LTP in slices from wild-type littermates ([1]; thapsigargin 4 μM, wild-type slices, p=0.974): did not affect LTP

Compound: miR-25: microRNA; human mature sequence CAUUGCACUUGUCUCGGUCUGA (SEQ ID NO:2) (CAUUGCACUUGUCUCGGUCUGA; expressed or natural sequence; listed as Homo sapiens)
- rescue of increased LTP in Dgcr8+/− hippocampus [2]: sufficient to rescue the increased LTP
- SERCA2 levels (quantitative western blot) (SERCA2): decreased

Compound: miR-98: microRNA; human mature sequence UGAGGUAGUAAGUUGUAUUGUU (SEQ ID NO:4) (UGAGGUAGUAAGUUGUAUUGUU; expressed or natural sequence; listed as Homo sapiens)
- rescue of increased LTP in Dgcr8+/− hippocampus [2]: sufficient to rescue aberrant LTP

Compound: miR-185: microRNA; human mature sequence UGGAGAGAAAGGCAGUUCCUGA (SEQ ID NO:6) (UGGAGAGAAAGGCAGUUCCUGA; expressed or natural sequence; listed as Homo sapiens)
- rescue of increased LTP in Dgcr8+/− hippocampus [2]: sufficient to rescue the increased LTP
- SERCA2 levels (quantitative western blot) (SERCA2): decreased
